From patent US20250319133A1, “METHODS FOR IMPROVING BONE HEALTH WITH BOVINE MILK EXOSOME-ENRICHED PRODUCTS AND VITAMIN K2” (ABBOTT LABORATORIES, priority 2022, published 2025)

System: MC3T3-E1 cells
Test: Alizarin Red S (ARS) extracellular mineralization assay, calcium deposits
Format: cell-based, murine
Settings: 12 days in differentiation medium, 1 μM vitamin K2 and/or 15 μg/ml bovine milk exosomes
Description: Alizarin Red S (ARS) assay is an anthraquinone dye used to visualize and evaluate extracellular calcium deposits in cell culture. In embodiments of the invention, mineralization activity of differentiated osteoblasts are evaluated through ARS assay. To begin the assay, MC3T3-E1 pre-osteoblast cells were grown in MEM (minimum essential medium) culture medium supplemented with 10% v/v FBS (fetal bovine serum), […], 100 units/ml penicillin and 0.1 mg/ml streptomycin in a 5% CO2 and an atmosphere with 95% humidity. For osteogenic differentiation, these pre-osteoblast cells were seeded in 24-well plates at a density of 3×10^4 cells/well in complete medium for 1 day. The medium was then replaced by MEM containing 10% v/v FBS, […], 100 units/ml penicillin, 0.1 mg/ml streptomycin, […], and 50 μg/ml L-ascorbic acid. Specifically, three groups of MC3T3-E1 pre-osteoblast cells were treated. Group 1 was treated with 1 μM vitamin K2. Group 2 was treated with 15 μg/ml bovine milk exosomes. Group 3 was treated with a combination of 1 μM vitamin K2 and 15 μg/ml bovine milk exosomes. Group 4 was included as an untreated control group. In addition to analyzing Runx2 and LC3 molecular markers in Example 2, cell Groups 1-3 as described in Example 2 were treated in the presence of a differentiation medium for 12 days. […]

CC(C)=CCC/C(C)=C/CC/C(C)=C/CC/C(C)=C/CC1=C(C)C(=O)c2ccccc2C1=O [vitamin K2]
calcium deposits (extracellular matrix mineralization), ARS micrographs: abundant calcium deposits
